Some test systems named below: ACHN renal; RXF 393 renal; MCF7 breast; HT29 colon; OVCAR-4 ovarian; HCC-2998 colon; 786-0 renal; RPMI-8226 leukemia; OVCAR-8 ovarian; HCT-116 colon.
Common to all, as to experiment: NCI-60 cell line screen, 48 h

The text below walks through data of PubChem BioAssay (NCI).

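Exposure lasted 48 hours, with cells grown in 96-well plates and compounds tested at five concentrations. GI50: concentration for 50% inhibition of growth. The concentration for full growth arrest is given as TGI.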

On to `O=C(Nc1n[nH]c2nnc(-c3cccnc3)cc12)C1CC1`, for which the GI50 with ACHN renal is 3.88 µM; in the assay on RXF 393 renal, 0.428 µM; in the assay with MCF7 breast, 1.07 µM; in the assay with HT29 colon it was 4.76 µM; with OVCAR-4 ovarian it was 7.66 µM; in the assay with HCC-2998 colon, 8.95 µM. Also, the GI50 in the assay with 786-0 renal was 3.65 µM; with RPMI-8226 leukemia it was more than 25 µM; with OVCAR-8 ovarian, 7.65 µM; in the assay on HCT-116 colon, 4.47 µM. Besides, the TGI was more than 25 µM in the assay on ACHN renal; more than 17.9 µM with RXF 393 renal; more than 25 µM in the assay with MCF7 breast; more than 25 µM in the assay on HT29 colon; more than 25 µM with OVCAR-4 ovarian; more than 25 µM in the assay on HCC-2998 colon. The TGI was more than 25 µM in the assay with 786-0 renal, more than 25 µM with RPMI-8226 leukemia, more than 25 µM in the assay with OVCAR-8 ovarian and more than 19.5 µM in the assay with HCT-116 colon.
Consider `CCCCCCCCCCCCCCCCC(=O)O.CCCCCCCCCCCCCCCCCC(=O)O.CCCCCCCCCCCCCCCCCC(=O)O.CCCCCCCCCCCCCCCCCC(=O)O.CCCCCCCCCCCCCCCCCC(=O)O.CO[CH-]OC12COC1CC(O)C1(C)C(O)C(OC(C)O)C3=C(C)C(OC(=O)C(O)C([NH-])c4ccccc4)CC(O)(C(OC(=O)c4ccccc4)C21)C3(C)C.[Cu+].[Zn].[Zn].[Zn].[Zn].[Zn]` (stereo not given), for which the GI50 with ACHN renal is 0.272 µM; in the assay on MCF7 breast, 0.00262 µM; with HT29 colon it was less than 0.0025 µM; with OVCAR-4 ovarian it was 2.35 µM; with HCC-2998 colon, 0.00647 µM; in the assay on 786-0 renal, 0.0595 µM. Moreover, the values for the GI50 with RPMI-8226 leukemia, with OVCAR-8 ovarian and in the assay with HCT-116 colon were 0.00776 µM, 0.0102 µM and 0.00309 µM, respectively. The TGI in the assay on ACHN renal was more than 25 µM; with RXF 393 renal, 0.21 µM; in the assay on MCF7 breast, 3.83 µM; in the assay on HT29 colon, more than 25 µM; in the assay with OVCAR-4 ovarian it was 11.7 µM; in the assay with 786-0 renal, more than 10.9 µM. Further, the TGI in the assay with RPMI-8226 leukemia, with OVCAR-8 ovarian and in the assay with HCT-116 colon was more than 25 µM each time.
Turning to `N#C[Se]CCCNS(=O)(=O)C1CC2C=CC1C2` (stereo not given), the GI50 was 1.48 µM in the assay on ACHN renal; 0.364 µM in the assay with RXF 393 renal; 0.588 µM with MCF7 breast; 0.386 µM with HT29 colon; 1.48 µM in the assay on OVCAR-4 ovarian; 1.95 µM in the assay with HCC-2998 colon. The GI50 is 0.997 µM in the assay with 786-0 renal, 2.17 µM with RPMI-8226 leukemia, 0.511 µM in the assay on OVCAR-8 ovarian and 0.276 µM in the assay with HCT-116 colon. Besides, the TGI stood at 2.85 µM in the assay with ACHN renal; 1.34 µM in the assay on RXF 393 renal; 5.55 µM with MCF7 breast; 5.31 µM in the assay with HT29 colon; 8.57 µM in the assay with OVCAR-4 ovarian; 4.73 µM with HCC-2998 colon. Also, the TGI came to 2.33 µM in the assay with 786-0 renal, 5.55 µM with RPMI-8226 leukemia, 5.06 µM in the assay with OVCAR-8 ovarian and 0.827 µM in the assay with HCT-116 colon.
As for `O=C1c2ccccc2-c2c1c1ccccc1c(=O)n2CCCNCCCCNCCCN1C(=O)c2ccccc2C2C(=O)c3ccccc3C21` (stereo not given), the GI50 in the assay with ACHN renal is 0.0573 µM; in the assay with RXF 393 renal, 0.0305 µM; in the assay on MCF7 breast, 0.0361 µM; in the assay on HT29 colon, 0.0766 µM; with OVCAR-4 ovarian, 0.779 µM; in the assay on HCC-2998 colon, 0.194 µM. The GI50 is 0.0786 µM with 786-0 renal, 0.00858 µM in the assay with RPMI-8226 leukemia, 0.0241 µM with OVCAR-8 ovarian and 0.0231 µM with HCT-116 colon. The TGI in the assay on ACHN renal was determined as 0.762 µM; in the assay on RXF 393 renal, 0.823 µM; in the assay on MCF7 breast it was 1.9 µM; in the assay on HT29 colon, 8.75 µM; in the assay with OVCAR-4 ovarian, 10.3 µM; with HCC-2998 colon, 0.908 µM. Also, the TGI with 786-0 renal is 0.782 µM; in the assay with RPMI-8226 leukemia it was 0.237 µM; with OVCAR-8 ovarian, 0.986 µM; in the assay with HCT-116 colon, 0.421 µM.
On to `Cc1ccc(Cl)c(Nc2ccccc2C(=O)O)c1Cl`, for which the GI50 was 32.7 µM with ACHN renal; 19.8 µM with RXF 393 renal; 34.2 µM in the assay with MCF7 breast; 35.6 µM in the assay with HT29 colon; 29.9 µM with OVCAR-4 ovarian; 26.6 µM with HCC-2998 colon. The GI50 was 23 µM in the assay with 786-0 renal, 26.6 µM in the assay on RPMI-8226 leukemia, 29.6 µM in the assay with OVCAR-8 ovarian and 19.6 µM in the assay with HCT-116 colon. In addition, the TGI is more than 100 µM with ACHN renal; 46.8 µM in the assay on RXF 393 renal; more than 100 µM with MCF7 breast; more than 100 µM in the assay with HT29 colon; 94.6 µM in the assay on OVCAR-4 ovarian; 66.4 µM in the assay on HCC-2998 colon. In addition, the TGI in the assay with 786-0 renal is 64.3 µM; in the assay with RPMI-8226 leukemia, 80.5 µM; with OVCAR-8 ovarian, more than 100 µM; in the assay on HCT-116 colon it was 44.9 µM.
Regarding `OCc1ccc(N2CCc3ccccc3C2)cc1Cl`, the GI50 in the assay on ACHN renal is 18.4 µM; with RXF 393 renal it was 13.5 µM; in the assay with MCF7 breast, less than 0.01 µM; in the assay on HT29 colon, less than 0.02 µM; in the assay with OVCAR-4 ovarian, less than 0.0149 µM; in the assay on HCC-2998 colon, 1.15 µM. For the same molecule, the GI50 in the assay on 786-0 renal is 16.6 µM; with RPMI-8226 leukemia, 0.617 µM; in the assay on OVCAR-8 ovarian it was 3.66 µM; in the assay with HCT-116 colon, less than 0.01 µM. Moreover, the TGI in the assay with ACHN renal is more than 78.6 µM; in the assay on RXF 393 renal it was 28.8 µM; in the assay on MCF7 breast, 55.3 µM; with HT29 colon it was more than 55.4 µM; with OVCAR-4 ovarian, 0.0633 µM; in the assay with HCC-2998 colon, 7.11 µM. Besides, the TGI in the assay with 786-0 renal amounted to 51.7 µM; in the assay with RPMI-8226 leukemia, 87.9 µM; with OVCAR-8 ovarian it was 36.6 µM; with HCT-116 colon, 14.1 µM.
As for `CC(=O)OC12COC1CC(O)C1(C)C(=O)C(O)C3=C(C)C(O)CC(O)(C(OC(=O)c4ccccc4)C21)C3(C)C` (stereo not given), the TGI in the assay with ACHN renal is more than 100 µM; in the assay with RXF 393 renal, more than 100 µM; in the assay with MCF7 breast it was more than 100 µM; in the assay with HT29 colon, more than 44.8 µM; with OVCAR-4 ovarian it was more than 100 µM; in the assay on HCC-2998 colon, 59.3 µM. In addition, the TGI in the assay on 786-0 renal was more than 100 µM; in the assay on RPMI-8226 leukemia it was more than 59.8 µM; in the assay with OVCAR-8 ovarian, more than 100 µM; with HCT-116 colon, more than 73.6 µM.
As for `COc1ccc(-n2ccnc2-c2cc(OC)c(OC)c(OC)c2)cc1`, the GI50 in the assay with RXF 393 renal was 1.87 µM; with MCF7 breast it was 1.55 µM; in the assay with HT29 colon, 1.86 µM; in the assay with OVCAR-4 ovarian, 11.3 µM; in the assay with HCC-2998 colon, 0.957 µM; in the assay with 786-0 renal, 5.65 µM. Moreover, the GI50 in the assay with RPMI-8226 leukemia was 3.78 µM; in the assay with OVCAR-8 ovarian, 4.71 µM; in the assay with HCT-116 colon it was 3.9 µM. The TGI in the assay with RXF 393 renal was 11.9 µM; with MCF7 breast, more than 100 µM; with OVCAR-4 ovarian, 85.7 µM; in the assay on HCC-2998 colon it was 24.6 µM; in the assay with 786-0 renal it was more than 100 µM; with RPMI-8226 leukemia, 30.7 µM. The TGI in the assay with OVCAR-8 ovarian and with HCT-116 colon was more than 100 µM in each case.
